Assay results taken from PMC11684006, “A Putative Frizzled 7-Targeting Compound Acts as a Firefly Luciferase Inhibitor” (Journal of Medicinal Chemistry, 2024).

Molecular target: T1, Firefly luciferase (Fluc) (Photinus pyralis, UniProt P08659)
T1 construct: Fluc amplified from the Super8X TOPFlash reporter plasmid, constitutively expressed under a CMV promoter
Assay: Fluc bioluminescence in lysates of compound-treated ΔFZD1–[…] HEK293T cells expressing CMV-driven Fluc (counter assay); Rluc and Nluc unaffected
Format: cell-based

T1 sequence (P08659 whole entry): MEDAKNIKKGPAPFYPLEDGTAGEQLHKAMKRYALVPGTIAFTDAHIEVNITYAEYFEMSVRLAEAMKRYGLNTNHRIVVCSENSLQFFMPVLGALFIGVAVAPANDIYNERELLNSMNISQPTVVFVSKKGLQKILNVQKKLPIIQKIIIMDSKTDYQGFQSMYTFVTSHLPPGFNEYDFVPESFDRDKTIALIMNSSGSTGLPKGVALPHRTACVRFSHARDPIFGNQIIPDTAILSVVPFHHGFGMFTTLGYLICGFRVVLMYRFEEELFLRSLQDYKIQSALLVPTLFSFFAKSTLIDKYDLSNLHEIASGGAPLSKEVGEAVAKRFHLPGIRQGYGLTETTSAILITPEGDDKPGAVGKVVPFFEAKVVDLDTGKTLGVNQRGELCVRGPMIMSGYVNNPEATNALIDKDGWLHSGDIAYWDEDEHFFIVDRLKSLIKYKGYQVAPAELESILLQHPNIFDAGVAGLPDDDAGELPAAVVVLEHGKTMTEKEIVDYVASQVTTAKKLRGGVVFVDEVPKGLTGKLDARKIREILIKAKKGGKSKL

For Cc1ccc(C(=O)Nc2ccc(SCC(=O)Nc3nc(-c4ccccc4)cs3)cc2)c(C)c1 [compound 3, 2,4-Dimethyl-N-(4-((2-oxo-2-((4-phenylthiazol-2-yl)amino)ethyl)thio)phenyl)benzamide], the IC50 was 25 nM.
